This note sets out measurements from patent publication US5273989A, “3,5-disubstituted 2-isoxazolines and isoxazoles, agents containing them and their use” (Hoechst Aktiengesellschaft, priority 1990, dated 1993).

Molecules are shown by their SMILES. Where a name gives a salt, the structure may show the parent alone. Read-outs that look alike come from different tables or passages of the source.

In data set [1] the test system is high affinity 3H-D-aspartate absorption, synaptic vesicles (synaptosomes) from rat cortex. Description: "High affinity" absorption of 3H-aspartate in a vesicle preparation from rat brain. The data set is classed as biochemical. The settings on record: for Stimulation of the 3H-D-aspartate absorption, Stimulation (%): relative to control values (100%). Here is the method: 1. "High affinity" absorption of ^3 H-aspartate in a vesicle preparation from rat brain.
Test principle: Fresh synaptic vesicles (synaptosomes) from rat cortex are incubated with buffer solution and ^3 H-D-aspartate and ^3 H-D-aspartate in the vesicles is measured. Preparations which in comparison to control synaptosomes increase the high affinity ^3 H-D-aspartate absorption and those which prevent the loss of ^3 H-D-aspartate by reliberation are regarded as particularly interesting.
Experimental protocol: The experiments for ^3 H-D-aspartate absorption were carried out by the method of Anand et al. (Biochem. Pharmacol., 35 (1986), 1055-1057). The synaptic vesicles were dissected out of cerebral cortex from male Sprague-Dawley rats. The preparations were tested at four concentrations as double samples in parallel with control samples containing buffer. The incubation medium (pH 7.4) contains: 1.2 mM KH2 PO4, 5 mM KCl, 5 mM pyruvate, 1.2 mM glucose, 1.2 mM MgCl2, 114 mM NaCl, 25 mM NaHCO3. For the non-specific ^3 H-D-aspartate absorption, NaCl was replaced by 114 mM choline chloride and NaHCO3 by 25 mM KHCO3. An aliquot of the vesicle suspension (about 25 μg/ml of test solution) was added to the test sample which was temperature controlled at 37° C. and aerated with Carbogen (5% CO2, 95% O2) and preincubated for 2 minutes. The three minutes incubation for the amino acid absorption was started by addition of 50 μl of ^3 H-D-aspartate (specific activity 25 Ci/mmol, 10 pmol/ml of test solution). The vesicles were separated from the incubation medium by filtration and additional washing of the adhering labeled amino acids using a Titertek cell harvester (Flow Laboratories, Meckenheim). The ^3 H-D-aspartate absorption was measured by means of a liquid scintillation counter (Canberra-Packard, Model 1500, Frankfurt).
The preparation activity is indicated in percent of the specific ^3 H-D-aspartate absorption, relative to control values (100%), in Table 3. Adenosine triphosphate (ATP) was used for comparison as the standard substance (see Table 3) and at 1 mM caused a 35% increase in the ^3 H-D-aspartate absorption.

Another data set deals with NMDA-induced cramps. Kind of data set: Inhibition of NMDA-induced cramps in the mouse. The data set is classed as in vivo. The settings on record: po, 1 h; for inhibition in vivo at 0.3 mg/kg: 0.3 mg/kg p.o. Here is the method:
4. Inhibition of NMDA-induced-cramps in the mouse
The examples listed below show neuroprotective activity in that they antagonize the cramps induced by NMDA (N-methyl-(D)-aspartate). To this end, intravenous injections of 20-30 mg/kg of NMDA are carried out on a male NMRI (Naval Medical Research Institute) mice of 22-24 g body weight, which leads to stereotypes, clonic cramps and in the majority of cases to mortality. In order to investigate an NMDA-antagonist activity of the test substances, they are administered orally one hour before NMDA. The animals are then observed for the abovementioned symptoms for up to 60 min. The number of animals with clonic cramps and the incidence of mortality, expressed in percent change compared to the control group, is regarded as the evaluation criterion.

Data set [2] is described as follows: Toxicity (LD50) in the mouse. Particulars: in vivo. An excerpt: As the examples investigated show considerable differences in toxicity compared to the standard substances, the LD50 values are also listed in Table 6,
In data set [3] the test system is CA1 pyramidal cells of the hippocampus after forebrain ischemia. Kind of data set: Neuroprotection after forebrain ischemia in the gerbil. Particulars: 50 mg/kg p.o., 15 minutes before ischemia.
Method: A 5-minutes' ischemia of the forebrain with subsequent recirculation is produced in 20 male Mongolian gerbils under halothane anesthesia by bilateral closure of the corotid artery by means of aneurysm clips. 7 days later, the animals are decapitated under halothane anesthesia, the brains are fixed by immersion in Carnoy solution and the extent of neuron damage in the CA1 region of the hippocampus is determined "blind" with the aid of a 5-stage histopathological score. The test substance is administered intraperitoneally or orally 15 minutes before ischemia to each group of 10 gerbils. One ischemic control group, also of 10 animals, is treated with the respective solvents per test substance.
The mark [4] stands for this setting: preparation concentration 500 μM.
[5] abbreviates: 50 mg/kg p.o., one hour before NMDA i.v., change compared to control group, read-out: Inhibition of convulsions.
The mark [6] stands for this setting: read-out: Inhibition of mortality.
[7] abbreviates: preparation concentration 100 μM.
The mark [8] stands for this setting: preparation concentration 1000 μM (1 mM).
Where [9] appears, read: preparation concentration 10 μM.

In the case of `O=C(O)CCc1cc(CNCc2ccccc2)on1` [Example 14, 5-Benzylaminomethylisoxazole-3-propionic acid], the “Stimulation of the 3H-D-aspartate absorption, Stimulation (%)” value (from here on “Stimulation … (%)”) in data set [1] (setting [4]) was 19%. Also, the inhibition in vivo at 50 mg/kg in the data set on NMDA-induced cramps (setting [5]) turned out to be 40%. Besides, the LD50 – broadly, the dose expected to kill half of the subjects tested – in data set [2] (ip) was > 300 mg/kg.
With `COC(=O)CCc1cc(C=NO)no1` [Example 55, methyl-3-hydroxyliminomethyl-isoxazole-5-propionate], the inhibition in vivo at 50 mg/kg was determined as 33% in the data set with NMDA-induced cramps (setting [5]) and 100% in the data set on NMDA-induced cramps (setting [6]).
As for `CC(=O)NCC1CC(CCC(=O)O)=NO1` (stereo not shown) [Example 32], in data set [1] (setting [7]), the “Stimulation … (%)” value came out at 19%. For the same compound, the inhibition in vivo at 50 mg/kg was 30% in the data set with NMDA-induced cramps (setting [5]) and 50% in the data set on NMDA-induced cramps (setting [6]). In addition, in data set [2] (iv), the LD50 was > 100 mg/kg.
For `C[C@]12N[C@H](Cc3ccccc31)c1ccccc12` [MK 801, (+)-5-methyl-10,11-dihydro-5H-dibenzo[a,d]cyclohept-5-en-10-imine, reference compound], the inhibition in vivo at 0.3 mg/kg with NMDA-induced cramps (one hour before NMDA i.v., change compared to control group, read-out: Inhibition of convulsions) came out at 60%; in the data set with NMDA-induced cramps (one hour before NMDA i.v., change compared to control group, read-out: Inhibition of mortality) it was 60%. In data set [2] (iv), this compound came in with an LD50 of 30 to 60 mg/kg.
Turning to `CN(C)C(=O)C1=NOC(CN)C1` (stereo not shown) [Example 39], the “Stimulation … (%)” value in data set [1] (setting [8]) is on record as 14%.
With `NCc1cc(CCC(=O)NCC(=O)O)no1` [Example 24, N-(5-Aminomethylisoxazol-3-yl)propionylglycine], in data set [1] (setting [4]), the “Stimulation … (%)” value stood at 28%.
The same measure, in the same setting: for `CC(C)(N)c1cc(CCC(=O)O)no1` [Example 13, 5-(1-Amino-1-methylethyl)isoxazole-3-propionic acid] the value was 33%.
Consider `CC(=O)NCc1cc(CCC(=O)O)no1` [Example 17, 5-Acetamidomethylisoxazole-3-propionic acid], for which the inhibition in vivo at 30 mg/kg was 30% in the data set on NMDA-induced cramps (30 mg/kg p.o., one hour before NMDA i.v., change compared to control group, read-out: Inhibition of convulsions) and 100% with NMDA-induced cramps (setting [6]). Besides, the LD50 in data set [2] (ip) was > 300 mg/kg.
Consider `C[C@H]1C[C@@H](OC(=O)CCc2cc(CN)on2)CC(C)(C)C1` (relative stereo) [Example 9, cis-(3,3,5)trimethylcyclohexyl 5-aminomethylisoxazole-3-propionate toluene-4-sulfonate], for which, in data set [1] (setting [7]), the “Stimulation … (%)” value came out at 19%.
For `Cl.O=C(C1=NOC(CN2CCCC2)C1)N1CCCC1` (stereo not shown) [Example 3, 5-Pyrrolidinomethyl-3-pyrrolidinocarbonyl-2-isoxazoline hydrochloride], in data set [1] (setting [4]), the “Stimulation … (%)” value came to 20%.
Consider `CN(C)Cc1cc(CCC(=O)O)no1` [Example 15, 5-Dimethylaminomethylizoxazole-3-propionic acid], for which the inhibition in vivo at 50 mg/kg was 40% with NMDA-induced cramps (setting [5]) and 100% in the data set with NMDA-induced cramps (setting [6]). In data set [2] (iv), the LD50 was > 100 mg/kg.
Regarding `Nc1ncnc2c1ncn2[C@@H]1O[C@H](COP(=O)(O)OP(=O)(O)OP(=O)(O)O)[C@@H](O)[C@H]1O` [ATP, Adenosine triphosphate, reference compound], the “activity on 3H-D-aspartate absorption (in words)” value in data set [1] (at a lower concentration than 500 μm) was “inactive”. Further, the “Stimulation … (%)” value in data set [1] (setting [4]) came out at 31%; in data set [1] (setting [8]), 35%; in data set [1] (preparation concentration 2000 μM), 57%; in data set [1] (preparation concentration 5000 μM) it was 121%.
Take `C[C@H]1C[C@@H](OC(=O)CCc2cc(C[N+](C)(C)C)on2)CC(C)(C)C1` (relative stereo) [Example 58, cis-(3,3,5)-trimethylcyclohexyl-5-trimethylammoniomethylisoxazole-3-propionate iodide]: the “Stimulation … (%)” value in data set [1] (setting [9]) worked out at 35%.
For the compound `NCC1CC(CCC(=O)O)=NO1` (single isomer, unassigned) [Example 31, 5-Aminomethyl-2-isoxazoline-3-propionic acid, (+)-enantiomer], the “Stimulation … (%)” value in data set [1] (setting [4]) was 21%.
On to `O=C(O)CCc1cc(CNC(=O)CCC[N+](=O)[O-])on1` [Example 53], for which the inhibition in vivo at 50 mg/kg with NMDA-induced cramps (setting [5]) stood at 33%.
`CC(C)[C@@H]1CC[C@@H](C)C[C@H]1OC(=O)CCC1=NOC(CN)C1` (single isomer, unassigned; (-)) [Example 28, (-)-Menthyl 5-aminomethyl-2-isoxazoline-3-propionate toluene-4-sulfonate]: the inhibition in vivo at 50 mg/kg with NMDA-induced cramps (setting [5]) came out at 20%.
As for `NCC1CC(CCC(=O)O)=NO1` (racemic) [Example 29, 5-Aminomethyl-2-isoxazoline-3-propionic acid, racemate], the inhibition in vivo at 50 mg/kg with NMDA-induced cramps (setting [5]) came out at 20%. The LD50 in data set [2] (iv) was > 200 mg/kg.
For `N.N.O=C(O)CCc1cc(CNCc2cc(CCC(=O)O)no2)on1` [Example 26, Bis(3-[2-carboxyethyl]isoxazol-5-ylmethyl)amine diammonium salt], the inhibition in vivo at 50 mg/kg in the data set with NMDA-induced cramps (setting [5]) is 40%. The LD50 in data set [2] (iv) was > 100 mg/kg.
Take `Cl.NCc1cc(CCC(N)=O)no1` [Example 50, 5-aminomethylisoxazole-3-propionamide hydrochloride]: in data set [1] (setting [4]), the “Stimulation … (%)” value is listed as 15%.
On to `CCOC(=O)CCc1cc(CN)on1.Cl` [Example 6, ethyl 5-aminomethylisoxazole-3-propionate hydrochloride], for which the “Stimulation … (%)” value in data set [1] (setting [9]) is 17%. The inhibition in vivo at 50 mg/kg turned out to be 20% in the data set with NMDA-induced cramps (setting [5]) and 40% in the data set with NMDA-induced cramps (setting [6]). The LD50 in data set [2] (iv) was > 100 mg/kg.
With `N=C(N)NCc1cc(CCC(=O)O)no1` [Example 23, 5-Guanidinomethylisoxazole-3-propionic acid], the inhibition in vivo at 50 mg/kg with NMDA-induced cramps (setting [5]) came out at 40%. In addition, in data set [2] (ip), the LD50 is > 300 mg/kg.
For `CC(C)[C@H]1CC[C@H](C)C[C@@H]1OC(=O)CCC1=NOC(CN)C1` (single isomer, unassigned; (+)) [Example 27, (+)-Menthyl 5-aminomethyl-2-isoxazoline-3-propionate toluene-4-sulfonate], in the data set on NMDA-induced cramps (setting [5]), the inhibition in vivo at 50 mg/kg was 20%. In data set [2] (iv), this compound had a median lethal dose (LD50) of 50 to 100 mg/kg.
For the compound `CCOP(C)(=O)CCc1cc(CN)on1` (stereo not shown) [Example 10, ethyl 2-(5-aminomethylisoxazole-3-yl)ethyl-2-(P-methyl)phosphinic acid hydrochloride], the “Stimulation … (%)” value in data set [1] (setting [4]) came to 23%. For the same compound, the inhibition in vivo at 50 mg/kg with NMDA-induced cramps (setting [5]) was found to be 10%; in the data set with NMDA-induced cramps (50 mg/kg p.o., one hour before NMDA i.v., change compared to control group, read-out: Inhibition of mortality), 70%. Also, the median lethal dose (LD50) in data set [2] (iv) was > 100 mg/kg.
`CP(=O)(O)CCc1cc(CN)on1` [Example 16, 2-(5-Aminomethylisoxazol-3-yl)ethyl-2-(-methyl)phosphinic acid hydrochloride]: the “Stimulation … (%)” value in data set [1] (setting [8]) was found to be 19%. Moreover, the inhibition in vivo at 50 mg/kg in the data set on NMDA-induced cramps (read-out: Inhibition of convulsions) and in the data set on NMDA-induced cramps (setting [6]) was 30% throughout. The “Cell necroses (% change)” value in data set [3] (histopathological score CA1, treated versus control group) is -27 % change. Further, the “Behavior score (% change)” value in data set [3] (treated versus control group) is 0 % change.
Consider `Cl.NCc1cc(CCO)no1` [Example 25, 5-Aminomethyl-3-(2-hydroxyethyl)isoxazole hydrochloride], for which, in data set [1] (setting [4]), the “Stimulation … (%)” value came to 20%.
